“Also recorded” adds a separate entry of the source.
What was measured:
[1] = Blood-brain barrier penetration study (brain levels); type: in vivo, mouse; conditions: mice, 20 mg/kg i.p., brain collected at time point of Cmax, compared to JMM001
Text: (§1) Adult hTau^P301S homozygous mice (Tg2541Godt mice, a transgenic mouse model of tauopathy carrying a human Tau^P301S mutation^19 and wild-type (WT) littermates on a C57BL/6J background of both genders were used in the in vivo efficacy on Tau histopathology experiments. hTauP301S homozygous mice were obtained as gifts from Dr. Michel Goedert at MRC Laboratory of Molecular Biology, Cambridge, UK and Dr. Stanley Prusiner at UCSF, USA, and were re-derived onto a pure C57BL/6J genetic background by Dr. Prusiner's lab. Mice were periodically outcrossed with WT C57BL/6J mice (Strain #000664) from Jackson Laboratory (Bar Harbor, ME) to maintain genetic diversity. Animals were group-housed in a temperature-controlled facility (73±2° F., 45% humidity, regular 12-hour light/dark cycle, lights on at 7 AM), with food and water ad libitum. All experimental procedures were approved by the ARC administrative office at the University of California Los Angeles (UCLA) and the UCLA institutional animal care and use committee (IACUC) and followed the USDA Animal Welfare Act Regulations, the Public Health Service (PHS) Policy on Humane Care and Use of Laboratory Animals, and the Guide for the Care and Use of Laboratory Animals. Adult male WT mice on a C57BL/6J background (Strain #000664), purchased from Jackson Laboratory (Bar Harbor, ME), were used in the in vivo pharmacokinetics and blood-brain barrier penetration studies. Animals were randomly assigned to experimental groups and tested by experimenters blinded to experimental conditions.
(§2) In vivo pharmacokinetics and blood-brain barrier penetration studies are conducted at UCSD-DMPK core following their standard of operation protocols. Briefly, freshly prepared JMM compounds (e.g., JMM001, JMM013, JMM015, JMM052, JMM067, and JMM086) formulated in a vehicle (1:1:1:7 DMSO: Cremophor: Ethanol: Saline) were administered to C57BL/6J mice at 20 mg/kg systemically (i.p., i.v., or p.o.) at various time points (0, 0.5, 1, 2, 4, 8, and 24 hrs post-injection) with five mice per group. Plasma samples were collected, and compound plasma levels were measured using LC/MS. […] Brain samples are then processed following and compound concentrations in the brain sample were measured via LC/MS. Compound brain levels are normalized to the mass of brain in a unit of ng/mg.

[2] = In vivo plasma pharmacokinetics; parameters: species or system mouse; conditions: mice; for Cmax (maximum plasma concentration observed) / plasma PK parameters / half life: 20 mg/kg i.p., compared to JMM001
Text: as §1, §2

[3] = target: T1, NPEPPS (Homo sapiens, UniProt P55786); experiment: Cell-based NPEPPS activity assay (Q-AMC fluorescence); conditions: log10 transformed; EC50 = concentration that elevates 50% NPEPPS activity (150% of DMSO baseline); HEK293T cells
T1 construct: endogenous in cells; host or cells: HEK293T
T1 sequence (P55786 whole entry): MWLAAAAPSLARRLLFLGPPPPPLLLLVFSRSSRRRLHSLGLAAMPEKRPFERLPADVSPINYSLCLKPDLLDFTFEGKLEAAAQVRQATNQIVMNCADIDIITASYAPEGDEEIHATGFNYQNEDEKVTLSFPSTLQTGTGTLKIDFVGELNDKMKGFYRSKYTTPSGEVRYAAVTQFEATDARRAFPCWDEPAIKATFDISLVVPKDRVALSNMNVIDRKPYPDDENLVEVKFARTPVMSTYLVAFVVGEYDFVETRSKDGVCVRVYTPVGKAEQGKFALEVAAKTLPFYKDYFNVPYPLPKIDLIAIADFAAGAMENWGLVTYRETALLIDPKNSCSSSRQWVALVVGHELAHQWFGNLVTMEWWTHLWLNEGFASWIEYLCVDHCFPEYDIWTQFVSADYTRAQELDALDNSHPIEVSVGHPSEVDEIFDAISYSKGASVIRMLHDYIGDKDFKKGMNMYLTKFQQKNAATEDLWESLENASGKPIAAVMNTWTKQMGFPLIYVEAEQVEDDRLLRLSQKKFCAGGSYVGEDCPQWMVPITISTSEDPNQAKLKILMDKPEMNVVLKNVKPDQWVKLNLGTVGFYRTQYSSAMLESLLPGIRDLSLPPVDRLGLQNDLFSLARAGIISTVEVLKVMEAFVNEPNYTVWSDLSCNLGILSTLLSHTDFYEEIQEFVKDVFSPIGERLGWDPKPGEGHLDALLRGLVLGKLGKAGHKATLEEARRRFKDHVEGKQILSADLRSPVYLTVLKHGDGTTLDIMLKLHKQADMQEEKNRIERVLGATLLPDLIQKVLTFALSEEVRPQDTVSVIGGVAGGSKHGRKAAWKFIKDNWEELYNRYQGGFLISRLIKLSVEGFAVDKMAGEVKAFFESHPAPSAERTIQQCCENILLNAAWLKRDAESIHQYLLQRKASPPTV
Summary of the method: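 HEK293T cells (16,500/well) on poly-L-ornithine in minimal medium with compounds in 20-step 2-fold dilution for 24 h, then H-Gln-AMC added (30 μl of 200 μM). Fluorescence (ex/em 360/460 nm) read at addition and 3 h later; change in fluorescence taken as NPEPPS activity, giving EC50 versus DMSO control.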

[4] = system: tau; experiment: Tau or pathological tau reduction in human tauopathy patient iPSC-derived neurons; type: cell-based; conditions: iPSC neurons from tauopathy patients

SMILES	brain levels (peak brain concentration) ([1]; 20 mg/kg)	Cmax (maximum plasma concentration observed) [2]	plasma PK parameters [2]	half life ([2]; 20 mg/kg)	EC50 [3] [µM]	oral bioavailability ([2]; 20 mg/kg i.v. or p.o.)	brain levels (peak brain concentration) [1]	half life [2]	toxicity in iPSC neurons [4]
c1ccc(COc2ccc(CNc3nsc4ccc(OCc5ccccc5)cc34)cc2)cc1 [JMM083]	improved; also recorded: increasing	increasing	improved	improved; also recorded: increasing	0.708	–	–	–	–
CN(Cc1ccc(C(F)(F)F)cc1)c1nsc2ccccc12 [JMM067]	improved; also recorded: increasing	increasing	improved	improved; also recorded: increasing	8.13	–	–	–	without observable toxicity
c1ccc2c(CNc3nsc4ccccc34)cccc2c1 [JMM013]	–	–	improved	–	15.1	–	improved	improved	without observable toxicity

Continued by falling EC50 [3], values first:

brain levels (peak brain concentration) ([1]; 20 mg/kg)	Cmax (maximum plasma concentration observed) [2]	plasma PK parameters [2]	half life ([2]; 20 mg/kg)	EC50 [3] [µM]	oral bioavailability ([2]; 20 mg/kg i.v. or p.o.)	brain levels (peak brain concentration) [1]	half life [2]	SMILES	toxicity in iPSC neurons [4]
improved; also recorded: increasing	increasing	improved	improved; also recorded: increasing	17	–	–	–	c1ccc2c(c1)-c1ccccc1C2Nc1nsc2ccccc12 [JMM052]	–
–	–	–	–	15.8	high	–	–	COc1ccc(CNc2nsc3ccccc23)cc1OC [JMM001]	without observable toxicity

From patent US20240174625A1, “COMPOSITIONS AND METHODS FOR TREATING TAUOPATHIES” (The Regents of the University of California, priority 2021, published 2024)
